According to patent US9498463B2, “Compound obtained from gamboge resin, and medical uses of the same” (priority 2010, dated 2016):
Values after ≈ are worked out from the molar mass of the structure shown. Where two headings read alike, the source gives them in different places.

How the values were obtained:
in vitro = assay: in vitro
Description: (§1) In Vitro Anti-Cancer Test
(§2) The in vitro anti-cancer test was primarily used to detect the effect of a candidate drug on cancer cell proliferation. The working principle involved therein is the ability of viable cells to shift alamarBlue (AbD Serotec, UK) from its originally non-fluorescent oxidized state (non-fluorescent, blue) to a reduced form (fluorescent, red) having fluorescence via metabolic reaction. According to the fluorescent data result generated by the alamarBlue reagent thus obtained, the proliferation of the viable cells and cell activity can be quantified for detection.
(§3) In the in vitro anti-cancer tests, a candidate drug was tested at 5 different concentrations of 0.01, 0.1, 1, 10, and 100 μg/ml, and six human cancer cell lines and a normal human cell line were used (see Table 5).

[1] = test system: Human breast adenocarcinoma cell MCF7; assay: cells; conditions: Homo sapiens; for IC50: MCF7, read-out: IC50 (50% inhibition concentration); for CC50: MCF7, read-out: LC50 (50% lethal concentration)
Description: as §1, §2, §3

[2] = test system: Human colon adenocarcinoma cell HT-29; assay: cells; conditions: for IC50: HT-29, read-out: IC50 (50% inhibition concentration); for CC50: HT-29, read-out: LC50 (50% lethal concentration)
Description: as §1, §2, §3

[3] = test system: Human hepatocellular carcinoma cell HepG2; assay: cells; conditions: for IC50: HepG2, read-out: IC50 (50% inhibition concentration); for CC50: HepG2, read-out: LC50 (50% lethal concentration)
Description: as §1, §2, §3

[4] = test system: Human histocytic lymphoma cell U937; assay: cells; conditions: for CC50: U-937, read-out: LC50 (50% lethal concentration)
Description: as §1, §2, §3

[5] = test system: Human lung carcinoma cell A549; assay: cells; conditions: for CC50: A549, read-out: LC50 (50% lethal concentration)
Description: as §1, §2, §3

[6] = test system: Human promyelocytic leukemia cell HL-60; assay: cells; conditions: for CC50: HL-60, read-out: LC50 (50% lethal concentration)
Description: as §1, §2, §3

[7] = test system: Human umbilical venal epithelial cell (HUVEC); assay: cells; conditions: Homo sapiens, HUVEC, read-out: IC50 (50% inhibition concentration)
Description: as §1, §2, §3

[8] = U-937, read-out: IC50 (50% inhibition concentration)
[9] = A549, read-out: IC50 (50% inhibition concentration)
[10] = HL-60, read-out: IC50 (50% inhibition concentration)

| SMILES | CC50 (in vitro) [µg/mL] | IC50 [1] [µg/mL] | CC50 [1] [µg/mL] | IC50 [2] [µg/mL] | CC50 [2] [µg/mL] | IC50 [3] [µg/mL] | CC50 [3] [µg/mL] | IC50 [4, 8] [µg/mL] | CC50 [4] [µg/mL] | IC50 [5, 9] [µg/mL] | CC50 [5] [µg/mL] | IC50 [6, 10] [µg/mL] | CC50 [6] [µg/mL] | IC50 [7] [µg/mL] | IC50 ([4]; U-937, read-out: IC50 (50% inhibition concentration), U937) [µg/mL] | IC50 ([5]; A549, read-out: IC50 (50% inhibition concentration), A549) [µg/mL] | IC50 ([6]; HL-60, read-out: IC50 (50% inhibition concentration), HL-60) [µg/mL] |
| --- | --- | --- | --- | --- | --- | --- | --- | --- | --- | --- | --- | --- | --- | --- | --- | --- | --- |
| CC(C)=CCC/C(C)=C/Cc1c(O)c(CC=C(C)C)c2c(c1O)C(=O)C1=CC3CC4C(C)(C)O[C@](CC=C(C)C)(C3=O)[C@@]14O2 (stereo in doubt) [Gh-4301, desoxygambogenin] | 1.3 (≈ 2.16 µM) | 19 (≈ 31.6 µM) | 56 (≈ 93.2 µM) | 13 (≈ 21.6 µM) | 42 (≈ 69.9 µM) | 12 (≈ 20 µM) | 51 (≈ 84.9 µM) | 11 (≈ 18.3 µM) | > 100 | 0.51 (≈ 0.849 µM) | 6.2 (≈ 10.3 µM) | 3.5 (≈ 5.83 µM) | > 100 | 0.29 (≈ 0.483 µM) |  |  |  |
| CC(C)=CCC[C@]1(C)C=Cc2c(O)c3c(c(CC=C(C)C)c2O1)O[C@]12C(=C[C@@H]4CC1C(C)(C)O[C@]2(C/C=C(/CO)C(=O)O)C4=O)C3=O [Gh-1601-A, 30-hydroxygambogic acid] | 5.4 (≈ 8.38 µM) |  |  |  |  |  |  |  |  |  |  |  | 3 (≈ 4.65 µM) |  | 0.09 (≈ 0.14 µM) |  |  |
| CC(C)=CCC[C@@]1(C)C=Cc2c(O)c3c(c(CC=C(C)C)c2O1)O[C@]12C(=C[C@@H]4CC1C(C)(C)O[C@]2(C/C=C(/CO)C(=O)O)C4=O)C3=O [Gh-1602, 30-hydroxyepigambogic acid] | 0.94 (≈ 1.46 µM) |  | 4 (≈ 6.2 µM) |  |  |  |  |  |  |  |  |  |  |  |  | 0.4 (≈ 0.62 µM) | 1 (≈ 1.55 µM) |
| CC(C)=CCC[C@]1(C)C=Cc2c(O)c3c(c(CC=C(C)C)c2O1)O[C@]12C(=C[C@@H]4CC1C(C)(C)O[C@]2(C/C=C(\C)C(=O)O)C4=O)C3=O [Gh-1641, isogambogic acid] | 1.3 (≈ 2.07 µM) | 1.7 (≈ 2.7 µM) | 33 (≈ 52.5 µM) | 1.4 (≈ 2.23 µM) | 4.4 (≈ 7 µM) | 0.86 (≈ 1.37 µM) | 4.5 (≈ 7.16 µM) | 9.4 (≈ 15 µM) | 36 (≈ 57.3 µM) | 0.47 (≈ 0.748 µM) | 3 (≈ 4.77 µM) | 8 (≈ 12.7 µM) | 32 (≈ 50.9 µM) | 0.18 (≈ 0.286 µM) |  |  |  |
| CC(C)=CCC[C@@]1(C)C=Cc2c(O)c3c(c(CC=C(C)C)c2O1)O[C@]12C(=C[C@@H]4CC1C(C)(C)O[C@]2(C/C=C(\C)C(=O)O)C4=O)C3=O [Gh-1642, epiisogambogic acid] | 1.3 (≈ 2.07 µM) | 2.4 (≈ 3.82 µM) | 29 (≈ 46.1 µM) | 1.9 (≈ 3.02 µM) | 4.8 (≈ 7.63 µM) | 1.1 (≈ 1.75 µM) | 5.3 (≈ 8.43 µM) | 8.8 (≈ 14 µM) | 33 (≈ 52.5 µM) | 0.51 (≈ 0.811 µM) | 2.8 (≈ 4.45 µM) | 6 (≈ 9.54 µM) | 35 (≈ 55.7 µM) | 0.18 (≈ 0.286 µM) |  |  |  |
| CC(C)=CCc1c2c(c(O)c3c1O[C@]14C(=C[C@@H]5CC1C(C)(C)O[C@]4(C/C=C(\C)C=O)C5=O)C3=O)C=CC(C)(C)O2 [Gh-2501, isomorellin] | 1.8 (≈ 3.3 µM) | 1.3 (≈ 2.39 µM) | 3.7 (≈ 6.79 µM) | 2.1 (≈ 3.86 µM) | 4 (≈ 7.34 µM) | 2.2 (≈ 4.04 µM) | 4.5 (≈ 8.26 µM) | 0.9 (≈ 1.65 µM) | 3.1 (≈ 5.69 µM) | 0.61 (≈ 1.12 µM) | 2.1 (≈ 3.86 µM) | 1 (≈ 1.84 µM) | 4 (≈ 7.34 µM) | 0.26 (≈ 0.477 µM) |  |  |  |
| CC(C)=CCC/C(C)=C/Cc1c(O)c(CC=C(C)C)c2c(c1O)C(=O)C1=C[C@@H]3CC4C(C)(C)O[C@](C/C=C(/C)C(=O)O)(C3=O)[C@@]14O2 [Gh-2505, gambogenic acid] | 2.3 (≈ 3.65 µM) | 1.9 (≈ 3.01 µM) | 19 (≈ 30.1 µM) | 2.1 (≈ 3.33 µM) | 4.4 (≈ 6.98 µM) | 2.1 (≈ 3.33 µM) | 6.5 (≈ 10.3 µM) | 1.1 (≈ 1.74 µM) | 3.7 (≈ 5.87 µM) | 0.62 (≈ 0.983 µM) | 12 (≈ 19 µM) | 0.75 (≈ 1.19 µM) | 7.2 (≈ 11.4 µM) | 0.28 (≈ 0.444 µM) |  |  |  |
| C=C(C)[C@@H]1CC[C@@]2(C)CC1c1c(O)c3c(c(CC=C(C)C)c1O2)O[C@]12C(=C[C@@H]4CC1C(C)(C)O[C@]2(/C=C/C(C)C(=O)O)C4=O)C3=O (stereo partly drawn) [Gh-2507, 3-butenoic acid, 2-methyl-4-[(1R,3aS,5S,9S,10R,13S,16aS)-3a,4,5,7,10,11,12,13-octahydro-8-hydroxy-3,3,13-trimethyl-15-(3-methyl-2-butenyl)-10-(1-methylethenyl)-7,18-dioxo-1,5:9,13-dimethano-1H,3H,9H-furo[3.4-g]oxocino[3.2-b]xanthen-1-yl],(3E)-] | 21 (≈ 33.4 µM) | 0.19 (≈ 0.302 µM) | 2.2 (≈ 3.5 µM) | 1.6 (≈ 2.54 µM) | 8.6 (≈ 13.7 µM) | 1.7 (≈ 2.7 µM) | 7.1 (≈ 11.3 µM) | 0.45 (≈ 0.716 µM) | 2.7 (≈ 4.29 µM) | 0.13 (≈ 0.207 µM) | 0.53 (≈ 0.843 µM) | 0.2 (≈ 0.318 µM) | 5.3 (≈ 8.43 µM) | 0.41 (≈ 0.652 µM) |  |  |  |
| C=C(C)C1CC[C@]2(C)C[C@H]1c1c(O)c3c(c(CC=C(C)C)c1O2)O[C@]12C(=C[C@@H]4CC1C(C)(C)O[C@]2(/C=C/C(C)C(=O)O)C4=O)C3=O (stereo partly drawn) [Gh-2508, 3-butenoic acid, 2-methyl-4-[(1R,3aS,5S,9R,10S,13R,16aS)-3a,4,5,7,10,11,12,13-octahydro-8-hydroxy-3,3,13-trimethyl-15-(3-methyl-2-butenyl)-10-(1-methylethenyl)-7,18-dioxo-1,5:9,13-dimethano-1H,3H,9H-furo[3.4-g]oxocino[3.2-b]xanthen-1-yl]-,(3E)-] | 5.4 (≈ 8.59 µM) | 0.087 (≈ 0.138 µM) | 1.7 (≈ 2.7 µM) | 1.8 (≈ 2.86 µM) | 5.5 (≈ 8.75 µM) | 1.9 (≈ 3.02 µM) | 5.9 (≈ 9.38 µM) | 0.28 (≈ 0.445 µM) | 2.2 (≈ 3.5 µM) | 0.16 (≈ 0.254 µM) | 0.46 (≈ 0.732 µM) | 0.28 (≈ 0.445 µM) | 6.6 (≈ 10.5 µM) | 0.52 (≈ 0.827 µM) |  |  |  |
| C=C(C)[C@@H]1CC[C@@]2(C)CC1c1c(O)c3c(c(CC=C(C)C)c1O2)O[C@]12C(=C[C@@H]4CC1C(C)(C)O[C@]2(C/C=C(/C)C(=O)O)C4=O)C3=O [Gh-2603-1, 2-butenoic acid, 2-methyl-4-[(1R,3aS,5S,9S,10R,13S,16aS)-3a,4,5,7,10,11,12,13-octahydro-8-hydroxy-3,3,13-trimethyl-15-(3-methyl-2-butenyl)-10-(1-methylethenyl)-7,18-dioxo-1,5:9,13-dimethano-1H,3H,9H-furo[3.4-g]oxocino[3.2-b]xanthen-1-yl]-,(2Z)-] | 1.7 (≈ 2.7 µM) |  |  |  |  | 1 (≈ 1.59 µM) |  |  |  |  |  | 1 (≈ 1.59 µM) |  |  |  |  |  |
| CC(C)=CCC[C@]1(C)C=Cc2c(O)c3c(c(CC=C(C)C)c2O1)O[C@]12C(=CC4CC1C(C)(C)O[C@]2(C/C=C(/C)C(=O)O)C4=O)C3=O [Gh-2605, gambogic acid] | 1.6 (≈ 2.54 µM) | 4.4 (≈ 7 µM) | 5.9 (≈ 9.38 µM) | 0.18 (≈ 0.286 µM) | 0.61 (≈ 0.97 µM) | 0.23 (≈ 0.366 µM) | 3.5 (≈ 5.57 µM) | 0.76 (≈ 1.21 µM) | 2.9 (≈ 4.61 µM) | 0.12 (≈ 0.191 µM) | 0.37 (≈ 0.588 µM) | 0.17 (≈ 0.27 µM) | 2.9 (≈ 4.61 µM) | 0.098 (≈ 0.156 µM) |  |  |  |
| CC(C)=CCC[C@@]1(C)C=Cc2c(O)c3c(c(CC=C(C)C)c2O1)O[C@]12C(=C[C@@H]4CC1C(C)(C)O[C@]2(C/C=C(/C)C(=O)O)C4=O)C3=O [Gh-2606, epigambogic acid] | 1.4 (≈ 2.23 µM) | 1.3 (≈ 2.07 µM) | 1.6 (≈ 2.54 µM) | 0.39 (≈ 0.62 µM) | 2 (≈ 3.18 µM) | 0.38 (≈ 0.604 µM) | 3 (≈ 4.77 µM) | 0.41 (≈ 0.652 µM) | 3.1 (≈ 4.93 µM) | 0.1 (≈ 0.159 µM) | 0.31 (≈ 0.493 µM) | 0.66 (≈ 1.05 µM) | 2.4 (≈ 3.82 µM) | 0.11 (≈ 0.175 µM) |  |  |  |
| CC(C)=CCc1c2c(c(O)c3c1O[C@@]1(C)CCC4C3C1C4(C)C)C(=O)C1=C[C@@H]3CC4C(C)(C)O[C@](C/C=C(/C)C(=O)O)(C3=O)[C@@]14O2 [Gh-2607-1A] | 1.5 (≈ 2.39 µM) | 0.12 (≈ 0.191 µM) | 1.5 (≈ 2.39 µM) | 0.24 (≈ 0.382 µM) | 0.84 (≈ 1.34 µM) | 0.43 (≈ 0.684 µM) | 3.9 (≈ 6.2 µM) | 0.15 (≈ 0.239 µM) | 0.37 (≈ 0.588 µM) | 0.19 (≈ 0.302 µM) | 0.45 (≈ 0.716 µM) | 0.49 (≈ 0.779 µM) | 2.6 (≈ 4.14 µM) | 0.43 (≈ 0.684 µM) |  |  |  |
